Legend:
Assay in all cases: Kinase panel (mobility shift)
Assay type in all cases: biochemical
DDR2 = target: T1, DDR2 (Homo sapiens, UniProt Q16832)
T1 sequence (Q16832 22-855): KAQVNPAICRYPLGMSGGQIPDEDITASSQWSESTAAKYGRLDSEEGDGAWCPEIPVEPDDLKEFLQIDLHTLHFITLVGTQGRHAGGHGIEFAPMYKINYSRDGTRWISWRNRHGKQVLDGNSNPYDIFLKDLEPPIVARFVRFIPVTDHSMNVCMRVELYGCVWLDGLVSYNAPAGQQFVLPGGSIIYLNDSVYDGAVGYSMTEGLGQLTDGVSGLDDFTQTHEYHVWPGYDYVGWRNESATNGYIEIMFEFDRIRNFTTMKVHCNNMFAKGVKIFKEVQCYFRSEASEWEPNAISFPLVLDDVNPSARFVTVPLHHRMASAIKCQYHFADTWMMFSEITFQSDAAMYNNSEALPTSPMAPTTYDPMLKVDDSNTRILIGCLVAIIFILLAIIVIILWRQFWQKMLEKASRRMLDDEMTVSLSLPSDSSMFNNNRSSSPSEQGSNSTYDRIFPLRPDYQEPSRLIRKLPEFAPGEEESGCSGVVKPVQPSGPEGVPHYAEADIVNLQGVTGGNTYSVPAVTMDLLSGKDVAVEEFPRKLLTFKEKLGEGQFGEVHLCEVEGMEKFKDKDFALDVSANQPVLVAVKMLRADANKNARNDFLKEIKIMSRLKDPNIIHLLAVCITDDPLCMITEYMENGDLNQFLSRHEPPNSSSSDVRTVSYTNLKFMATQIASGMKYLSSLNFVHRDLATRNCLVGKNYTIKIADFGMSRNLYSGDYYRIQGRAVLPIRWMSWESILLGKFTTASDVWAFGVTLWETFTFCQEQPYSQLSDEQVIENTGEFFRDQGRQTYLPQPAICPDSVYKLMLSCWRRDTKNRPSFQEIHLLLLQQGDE
In short: (§1)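 Tested at a single 5 um concentration within a 299-kinase panel, compounds were scored by electrophoretic mobility shift of a fluorescent substrate into product. Categories: A, 95% or greater; B, 90%-94%; C, 80%-89%.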

TRKB = TRKB (Homo sapiens, UniProt Q16620)
In short: as §1

P38-b = P38-b (Homo sapiens, UniProt Q15759)
In short: as §1

EPH-A5 = EPH-A5 (Homo sapiens, UniProt P54756); settings: at 5 um
In short: as §1

TAOK3 = target: T2, TAOK3 (Homo sapiens, UniProt Q9H2K8)
T2 sequence (Q9H2K8 1-898): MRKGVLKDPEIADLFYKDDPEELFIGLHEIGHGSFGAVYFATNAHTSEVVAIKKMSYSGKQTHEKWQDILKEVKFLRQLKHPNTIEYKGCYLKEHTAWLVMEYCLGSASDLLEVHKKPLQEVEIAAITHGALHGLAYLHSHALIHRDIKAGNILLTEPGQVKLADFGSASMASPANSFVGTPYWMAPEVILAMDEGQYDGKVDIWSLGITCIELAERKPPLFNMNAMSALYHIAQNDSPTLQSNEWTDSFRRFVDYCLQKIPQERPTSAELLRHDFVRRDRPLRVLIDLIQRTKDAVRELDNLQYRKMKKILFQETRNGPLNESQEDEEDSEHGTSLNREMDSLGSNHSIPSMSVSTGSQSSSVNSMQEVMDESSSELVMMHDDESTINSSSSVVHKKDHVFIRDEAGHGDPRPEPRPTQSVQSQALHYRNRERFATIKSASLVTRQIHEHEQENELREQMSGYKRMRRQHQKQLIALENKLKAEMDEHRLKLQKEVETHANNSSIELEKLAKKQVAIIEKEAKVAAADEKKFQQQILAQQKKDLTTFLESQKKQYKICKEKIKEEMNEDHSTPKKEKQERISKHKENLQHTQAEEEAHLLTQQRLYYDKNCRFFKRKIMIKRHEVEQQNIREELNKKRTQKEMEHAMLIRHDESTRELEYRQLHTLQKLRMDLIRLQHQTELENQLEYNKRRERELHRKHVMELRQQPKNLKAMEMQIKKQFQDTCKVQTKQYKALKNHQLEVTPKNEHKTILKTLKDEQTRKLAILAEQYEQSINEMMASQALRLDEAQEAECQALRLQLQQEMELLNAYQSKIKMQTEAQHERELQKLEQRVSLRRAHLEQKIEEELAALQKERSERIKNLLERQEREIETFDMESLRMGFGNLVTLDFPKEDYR
In short: as §1

Sequence of P38-b (Q15759 whole entry, species assumed): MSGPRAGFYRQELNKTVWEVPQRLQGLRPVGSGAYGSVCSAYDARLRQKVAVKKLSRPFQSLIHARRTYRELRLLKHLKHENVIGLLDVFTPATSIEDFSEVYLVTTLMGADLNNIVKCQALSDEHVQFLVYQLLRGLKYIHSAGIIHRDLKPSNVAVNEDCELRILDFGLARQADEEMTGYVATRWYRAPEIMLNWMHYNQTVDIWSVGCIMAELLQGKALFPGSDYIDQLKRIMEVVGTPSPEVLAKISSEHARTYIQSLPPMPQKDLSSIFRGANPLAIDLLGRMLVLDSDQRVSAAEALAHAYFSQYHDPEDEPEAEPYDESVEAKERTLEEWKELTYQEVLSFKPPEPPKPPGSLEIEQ
Sequence of EPH-A5 (P54756 25-1037, species assumed): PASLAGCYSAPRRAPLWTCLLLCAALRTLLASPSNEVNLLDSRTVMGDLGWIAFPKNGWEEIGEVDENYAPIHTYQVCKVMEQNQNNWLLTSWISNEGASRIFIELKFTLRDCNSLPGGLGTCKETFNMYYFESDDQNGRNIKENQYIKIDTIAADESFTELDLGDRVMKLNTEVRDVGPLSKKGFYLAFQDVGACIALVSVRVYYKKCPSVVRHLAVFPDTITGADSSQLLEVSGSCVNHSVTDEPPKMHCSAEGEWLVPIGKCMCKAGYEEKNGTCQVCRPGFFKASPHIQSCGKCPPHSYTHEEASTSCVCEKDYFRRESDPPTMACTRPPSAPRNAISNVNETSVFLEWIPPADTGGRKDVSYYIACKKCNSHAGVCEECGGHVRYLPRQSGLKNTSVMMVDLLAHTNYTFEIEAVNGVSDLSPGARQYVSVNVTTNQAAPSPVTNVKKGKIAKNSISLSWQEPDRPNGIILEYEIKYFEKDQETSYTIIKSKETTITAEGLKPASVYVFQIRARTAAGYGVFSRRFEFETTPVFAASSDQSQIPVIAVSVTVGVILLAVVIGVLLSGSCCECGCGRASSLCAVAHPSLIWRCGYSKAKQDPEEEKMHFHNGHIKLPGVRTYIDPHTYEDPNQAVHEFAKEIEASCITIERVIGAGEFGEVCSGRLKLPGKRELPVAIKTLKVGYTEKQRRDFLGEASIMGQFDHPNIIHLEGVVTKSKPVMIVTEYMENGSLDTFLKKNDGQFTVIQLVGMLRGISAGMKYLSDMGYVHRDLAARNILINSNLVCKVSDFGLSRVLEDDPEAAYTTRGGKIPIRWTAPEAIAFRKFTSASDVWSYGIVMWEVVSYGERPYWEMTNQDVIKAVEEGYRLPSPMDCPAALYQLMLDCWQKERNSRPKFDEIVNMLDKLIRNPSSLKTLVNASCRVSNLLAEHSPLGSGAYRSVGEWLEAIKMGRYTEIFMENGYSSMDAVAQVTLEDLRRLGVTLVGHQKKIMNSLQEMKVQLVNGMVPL
Sequence of TRKB (Q16620 32-822, species assumed): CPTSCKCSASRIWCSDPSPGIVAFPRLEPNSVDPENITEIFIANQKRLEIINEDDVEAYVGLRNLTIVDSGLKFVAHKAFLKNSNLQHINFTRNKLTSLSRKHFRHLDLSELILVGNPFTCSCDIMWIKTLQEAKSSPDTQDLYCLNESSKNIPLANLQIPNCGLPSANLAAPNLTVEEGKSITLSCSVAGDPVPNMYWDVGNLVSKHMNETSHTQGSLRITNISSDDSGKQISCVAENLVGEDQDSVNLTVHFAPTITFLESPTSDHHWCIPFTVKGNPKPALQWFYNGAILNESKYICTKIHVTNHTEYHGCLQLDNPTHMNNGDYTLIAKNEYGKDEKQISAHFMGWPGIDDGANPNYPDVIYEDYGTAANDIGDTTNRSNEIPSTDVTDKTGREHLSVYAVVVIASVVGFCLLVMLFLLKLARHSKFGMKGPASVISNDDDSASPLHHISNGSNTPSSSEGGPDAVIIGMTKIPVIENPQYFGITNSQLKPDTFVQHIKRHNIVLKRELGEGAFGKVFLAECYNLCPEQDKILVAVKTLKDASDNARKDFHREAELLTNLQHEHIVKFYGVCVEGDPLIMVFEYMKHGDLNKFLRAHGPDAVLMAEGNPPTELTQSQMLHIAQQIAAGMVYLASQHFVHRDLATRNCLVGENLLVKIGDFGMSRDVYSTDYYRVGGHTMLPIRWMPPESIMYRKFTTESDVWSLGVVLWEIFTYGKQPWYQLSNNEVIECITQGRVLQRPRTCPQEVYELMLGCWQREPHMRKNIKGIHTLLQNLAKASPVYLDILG

| inhibition at 5 µM (DDR2) | inhibition at 5 µM (TRKB) | inhibition at 5 µM (P38-b) | inhibition of kinase activity, EPH-A5 (EPH-A5) | inhibition at 5 µM (TAOK3) | SMILES |
| --- | --- | --- | --- | --- | --- |
| < 50% | < 50% | < 50% | E (category E is less than 50%) | < 50% | CNC(=O)c1cc(Oc2ccc(NC(=O)c3nc(SC)oc3-c3ccc(F)s3)cc2F)ccn1 [Compound 16] |
| 50 to 79% | 50 to 79% | < 50% | E (category E is less than 50%) | < 50% | CNC(=O)c1cc(Oc2ccc(NC(=O)c3nc(NC)oc3-c3ccc(F)s3)cc2F)ccn1 [Compound 17] |
| 80 to 89% | < 50% | < 50% | D (category D for 50-79) | 50 to 79% | CNC(=O)c1cc(Oc2c(F)cc(NC(=O)c3nc(NC)sc3-c3ccc(F)cc3)cc2F)ccn1 [Compound 19] |
| 50 to 79% | 50 to 79% | < 50% | D (category D for 50-79) | 50 to 79% | CNC(=O)c1cc(Oc2ccc(NC(=O)c3nc(NC)sc3-c3ccc(F)cc3F)cc2F)ccn1 [Compound 21] |
| 50 to 79% | 80 to 89% | < 50% | D (category D for 50-79) | 50 to 79% | CNC(=O)c1cc(Oc2ccc(NC(=O)c3nc(NC)sc3-c3ccc(F)cc3C)cc2F)ccn1 [Compound 23] |
| 80 to 89% | < 50% | < 50% | E (category E is less than 50%) | < 50% | CNC(=O)c1cc(Oc2ccc(NC(=O)c3nc(OC)oc3-c3ccc(F)c(F)c3)cc2F)ccn1 [Compound 24] |
| 50 to 79% | < 50% | < 50% | E (category E is less than 50%) | < 50% | CNC(=O)c1cc(Oc2ccc(NC(=O)c3nc(OC)oc3-c3ccc(F)s3)cc2F)ccn1 [Compound 25] |
| 80 to 89% | 50 to 79% | 50 to 79% | C (C=80%-89% at 5 um) | 80 to 89% | CNC(=O)c1cc(Oc2ccc(NC(=O)c3nc(C4CC4)oc3-c3ccc(F)cc3)cc2F)ccn1 [Compound 26] |
| < 50% | < 50% | < 50% | E (category E is less than 50%) | < 50% | CSc1nc(C(=O)Nc2ccc(Oc3ccnc(C(=O)NC4CNC4)c3)c(F)c2)c(-c2ccc(F)s2)o1 [Compound 27] |
| < 50% | < 50% | < 50% | E (category E is less than 50%) | < 50% | CSc1nc(C(=O)Nc2ccc(Oc3ccnc(C(=O)NC4COC4)c3)c(F)c2)c(-c2ccc(F)s2)o1 [Compound 28] |
| 50 to 79% | < 50% | 80 to 89% | E (category E is less than 50%) | 50 to 79% | CSc1nc(C(=O)Nc2ccc(Oc3ccnc(C(=O)NC4CNC4)c3)c(F)c2)c(-c2ccc(F)cc2)o1 [Compound 29] |
| 90 to 94% | 80 to 89% | 50 to 79% | C (C=80%-89% at 5 um) | 80 to 89% | CNC(=O)c1cc(Oc2ccc(NC(=O)c3nc(COC)oc3-c3ccc(F)cc3)cc2F)ccn1 [Compound 30] |
